Source: EP0270317A2, “Pharmaceutical compositions for the treatment of diseases caused by viruses” (Kabushiki Kaisha Ueno Seiyaku Oyo Kenkyujo, priority 1986, dated 1988)

Tested on: HTLV-III
Assay: inhibition of viral infection, MT-4 cells infected with HTLV-III, time course (Example 18)
Assay type: cell-based
Details: sole use of 10 nM AZT or 5 µg/ml dextran sulfate; day 9
Description: AIDS virus HTLV-III was challenged to established human T-lymphocyte culture cells MT-4 and the cell suspension and virus particles were incubated at 37°C for 1 hour. The cells were then washed with phosphate buffered saline once and cultured with or without various doses of the test substances in RPMI-1640 medium at 37°C under 5 % CO₂ in an incubator.
MT-4 cells infected with HTLV-III were destructed as the virus proliferated, resulting in decrease of viable cells. Prior to the cytolysis by viral cytopathic effect, the cells infected with HTLV-III which were detectable by indirct immuno fluorescence method appeared. On day 12, number of the living cells was counted to know the extent of infection, and rate of the infected cells was determined by indirect immuno-fluorescence method using an antibody having specificity to the virus specific antigen. As the test substances, 3ʹ-azido-3ʹ-deoxythymidine (AZT) and dextran sulfate(M.W. 7000 - 8000, S-content 17 - 20%) (DS) were used.
In the same procedure as in Expample 7, the MT-4 cells infected with HTLV-III were cultured in medium and the changes in the number of viable cells and the rate of the infected cells were recorded in time course. […]

Cc1cn([C@H]2C[C@H](N=[N+]=[N-])[C@@H](CO)O2)c(=O)[nH]c1=O [AZT, 3ʹ-azido-3ʹ-deoxythymidine]
infection: 100%
